{"source": "BindingDB's records for doi:10.1021/jm970550g", "about": "(Northwestern University, 1998)", "data": [{"assay": "Compound was tested for binding affinity against neuronal nitric oxide synthase(nNOS)", "units": {"Ki": "nM"}, "values": [{"smiles": "C#CCNC(=N)NCCCC(N)C(=O)O", "note": "(stereo not drawn) [2-Amino-5-(N'-prop-2-ynyl-guanidino)-pentanoic acid]", "Ki": 430}, {"smiles": "C=CCNC(=N)NCCCC(N)C(C)=O", "note": "(stereo not drawn) [1-Acetyl-4-(N'-allyl-guanidino)-butyl-ammonium]", "Ki": 200}, {"smiles": "CCNC(=N)NCCCC(N)C(=O)O", "note": "(stereo not drawn) [2-Amino-5-(N'-ethyl-guanidino)-pentanoic acid]", "Ki": 16000}]}]}
